Assay results from patent US20220183952A1, “FORMULATION FOR THE TOPICAL TREATMENT OF THE SKIN AND RELATED USE” (SVAS BIOSANA SPA, priority 2018, published 2022).

Assays:
[1] = TEAC (Trolox equivalent antioxidant capacity) assay
[2] = FRAP (Ferric reducing antioxidant power) assay
[3] = Superoxide radical scavenging activity

Structure (SMILES) | TEAC [1] | FRAP [2] | Superoxide radical scavenging activity, EC50 [3]
Cc1cc(C(C)(C)C)c(O)c(C(C)(C)C)c1 [BHT, hydroxytoluene butylate] | 0.467 ± 0.005 mmol TE/g | 0.416 ± 0.020 Mmol Fe2+/g | –
O=C1O[C@H]([C@@H](O)CO)C(O)=C1O [Vitamin C, vitamin C] | 7.23 ± 0.28 mmol TE/g | 6.57 ± 1.00 Mmol Fe2+/g | 60 ± 0 µg/mL
